From patent US7238701B2, “Substituted tetrahydrobenzothienopyrimidinamine compounds useful for treating hyper-proliferative disorders” (Bayer Pharmaceuticals Corporation, priority 2003, dated 2007)
pIC50: −log10 of the molar value.

Legend:
[1] = system: BT474 (human breast carcinoma); assay: In vitro tumor cell proliferation assay (Cell Titer-Glo luminescent cell viability), BT474 cells; assay type: cell-based; settings: BT-474, 72 hours drug exposure, 10% Fetal Bovine Serum, ATP luminescence readout, read-out: IC50 (50% inhibition of cell proliferation)
In short: (§1)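 ATP luminescence (CellTiter-Glo) measured proliferation after 72 h compound exposure at 37 °C, giving IC50 values. Serial dilutions spanning 64 pM–100 μM in 0.1% DMSO were applied one day after plating 2.5×10^3 cells/well in RPMI plus 10% fetal bovine serum.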

[2] = system: A431cells (human epidermoid carcinoma); assay: In vitro tumor cell proliferation assay (Cell Titer-Glo luminescent cell viability), A431 cells; assay type: cell-based; settings: A-431, 72 h, 72 hours drug exposure, 10% Fetal Bovine Serum, ATP luminescence readout, read-out: IC50 (50% inhibition of cell proliferation)
In short: as §1

Row | pIC50 [1] | pIC50 [2] | Structure (SMILES)
1 | > 5.30 | > 4.30 | O=C(CC1CCc2c(sc3ncnc(Nc4ccc(F)c(Cl)c4)c23)C1)N1CCCCC1 (centres unmarked) [Example 67, N-(3-chloro-4-fluorophenyl)-7-[2-oxo-2-(1-piperidinyl)ethyl]-5,6,7,8-tetrahydro[1]benzothieno[2,3-d]pyrimidin-4-amine]
2 | > 4.30 | > 4.30 | COCCN(C)C(=O)CC1CCc2c(sc3ncnc(Nc4ccc(OCc5ccc(F)cc5)c(Cl)c4)c23)C1 (centres unmarked) [Example 151, 2-[4-({3-chloro-4-[(4-fluorobenzyl)oxy]phenyl}amino)-5,6,7,8-tetrahydro[1]benzothieno[2,3-d]pyrimidin-7-yl]-N-(2-methoxyethyl)-N-methylacetamide]
3 | > 5.30 | > 5.30 | COC[C@H]1CCCN1CCC1CCc2c(sc3ncnc(Nc4ccc(OCc5cccc(F)c5)c(Cl)c4)c23)C1 (stereo partly drawn) [Example 198, N-{3-chloro-4-[(3-fluorobenzyl)oxy]phenyl}-7-{2-[(2R)-2-(methoxymethyl)pyrrolidin-1-yl]ethyl}-5,6,7,8-tetrahydro[1]benzothieno[2,3-d]pyrimidin-4-amine]
4 | > 5.30 | > 5.30 | O[C@H]1CCN(CCC2CCc3c(sc4ncnc(Nc5ccc(OCc6cccc(F)c6)c(Cl)c5)c34)C2)C1 (stereo partly drawn) [Example 186, (3S)-1-{2-[4-({3-chloro-4-[(3-fluorobenzyl)oxy]phenyl}amino)-5,6,7,8-tetrahydro[1]benzothieno[2,3-d]pyrimidin-7-yl]ethyl}pyrrolidin-3-ol]
5 | > 5.30 | > 5.30 | CN(C)[C@@H]1CCN(CCC2CCc3c(sc4ncnc(Nc5ccc(OCc6cccc(F)c6)c(Cl)c5)c34)C2)C1 (some centres unmarked) [Example 160]
6 | > 5.30 | > 5.30 | Fc1ccc(Nc2ncnc3sc4c(c23)CCC(CCN2CCCCC2)C4)cc1Cl (centres unmarked) [Example 73, N-(3-chloro-4-fluorophenyl)-7-[2-(1-piperidinyl)ethyl]-5,6,7,8-tetrahydro[1]benzothieno[2,3-d]pyrimidin-4-amine]
7 | > 5.30 | > 5.30 | COCCN1CCN(CCC2CCc3c(sc4ncnc(Nc5cccc(Br)c5)c34)C2)CC1 (centres unmarked) [Example 93, N-(3-bromophenyl)-7-{2-[4-(2-methoxyethyl)-1-piperazinyl]ethyl}-5,6,7,8-tetrahydro[1]benzothieno[2,3-d]pyrimidin-4-amine]
8 | > 5.30 | > 5.30 | COCCN1CCN(CCC2CCc3c(sc4ncnc(Nc5ccc(OCc6cccc(F)c6)c(Cl)c5)c34)C2)CC1 (centres unmarked) [Example 168, N-{3-chloro-4-[(3-fluorobenzyl)oxy]phenyl}-7-{2-[4-(2-methoxyethyl)piperazin-1-yl]ethyl}-5,6,7,8-tetrahydro[1]benzothieno[2,3-d]pyrimidin-4-amine]
9 | > 5.30 | > 4.30 | CC1CCCN1CCC1CCc2c(sc3ncnc(Nc4ccc5c(cnn5Cc5ccccc5)c4)c23)C1 (centres unmarked) [Example 238, N-(1-benzyl-1H-indazol-5-yl)-7-[2-(2-methylpyrrolidin-1-yl)ethyl]-5,6,7,8-tetrahydro[1]benzothieno[2,3-d]pyrimidin-4-amine]
10 | > 5.30 | > 4.30 | Cc1ccc(Oc2ccc(Nc3ncnc4sc5c(c34)CCC(CCN3CCOCC3)C5)cc2C)cn1 (centres unmarked) [Example 225, N-{3-methyl-4-[(6-methylpyridin-3-yl)oxy]phenyl}-7-(2-morpholin-4-ylethyl)-5,6,7,8-tetrahydro[1]benzothieno[2,3-d]pyrimidin-4-amine]
11 | > 5.30 | > 4.30 | O=C(CC1CCc2c(sc3ncnc(Nc4cccc(Br)c4)c23)C1)N1CCN(Cc2ccncc2)CC1 (centres unmarked) [Example 103, N-(3-bromophenyl)-7-{2-oxo-2-[4-(4-pyridinylmethyl)-1-piperazinyl]ethyl}-5,6,7,8-tetrahydro[1]benzothieno[2,3-d]pyrimidin-4-amine]
12 | > 5.30 | > 5.30 | c1ccc(Cn2ncc3cc(Nc4ncnc5sc6c(c45)CCC(CCN4CCCC4)C6)ccc32)cc1 (centres unmarked) [Example 208, N-(1-benzyl-1H-indazol-5-yl)-7-(2-pyrrolidin-1-ylethyl)-5,6,7,8-tetrahydro[1]benzothieno[2,3-d]pyrimidin-4-amine]
13 | > 5.30 | > 5.30 | OCCNCCC1CCc2c(sc3ncnc(Nc4ccc(OCc5cccc(F)c5)c(Cl)c4)c23)C1 (centres unmarked) [Example 163, 2-({2-[4-({3-chloro-4-[(3-fluorobenzyl)oxy]phenyl}amino)-5,6,7,8-tetrahydro[1]benzothieno[2,3-d]pyrimidin-7-yl]ethyl}amino)ethanol]
14 | > 5.30 | > 5.30 | COCCNCCC1CCc2c(sc3ncnc(Nc4ccc(OCc5ccccn5)c(Cl)c4)c23)C1 (centres unmarked) [Example 176, N-[3-chloro-4-(pyridin-2-ylmethoxy)phenyl]-7-{2-[(2-methoxyethyl)amino]ethyl}-5,6,7,8-tetrahydro[1]benzothieno[2,3-d]pyrimidin-4-amine]
15 | > 5.30 | > 5.30 | OCCN(CCO)CCC1CCc2c(sc3ncnc(Nc4ccc(OCc5cccc(F)c5)c(Cl)c4)c23)C1 (centres unmarked) [Example 165, 2,2′-({2-[4-({3-chloro-4-[(3-fluorobenzyl)oxy]phenyl}amino)-5,6,7,8-tetrahydro[1]benzothieno[2,3-d]pyrimidin-7-yl]ethyl}imino)diethanol]
16 | > 5.30 | > 5.30 | Clc1cc(Nc2ncnc3sc4c(c23)CCC(CCN2CCCCC2)C4)ccc1OCc1ccccn1 (centres unmarked) [Example 191, N-[3-chloro-4-(pyridin-2-ylmethoxy)phenyl]-7-(2-piperidin-1-ylethyl)-5,6,7,8-tetrahydro[1]benzothieno[2,3-d]pyrimidin-4-amine]
17 | > 5.30 | > 5.30 | CS(=O)(=O)OCCC1CCc2c(sc3ncnc(Nc4ccc(OCc5ccccn5)c(Cl)c4)c23)C1 (centres unmarked) [Example 175, Methanesulfonic acid 2-{4-[3-chloro-4-(pyridin-2-ylmethoxy)-phenylamino]-5,6,7,8-tetrahydro-benzo[4,5]thieno[2,3-d]pyrimidin-7-yl}-ethyl ester]
18 | > 5.30 | > 5.30 | CN1CCN(C(=O)CC2CCc3c(sc4ncnc(Nc5ccc(F)c(Cl)c5)c34)C2)CC1 (centres unmarked) [Example 58, N-(3-chloro-4-fluorophenyl)-7-[2-(4-methyl-1-piperazinyl)-2-oxoethyl]-5,6,7,8-tetrahydro[1]benzothieno[2,3-d]pyrimidin-4-amine]
19 | > 5.30 | > 4.30 | CCOC(=O)CC1CCc2c(sc3ncnc(Nc4ccc5c(cnn5Cc5ccccc5)c4)c23)C1 (centres unmarked) [Example 204, ethyl {4-[(1-benzyl-1H-indazol-5-yl)amino]-5,6,7,8-tetrahydro[1]benzothieno[2,3-d]pyrimidin-7-yl}acetate]
20 | > 5.30 | > 5.30 | Brc1cccc(Nc2ncnc3sc4c(c23)CCC(CCN2CCCCC2)C4)c1 (centres unmarked) [Example 79, N-(3-bromophenyl)-7-[2-(1-piperidinyl)ethyl]-5,6,7,8-tetrahydro[1]benzothieno[2,3-d]pyrimidin-4-amine]
21 | > 5.30 | > 5.30 | COCCN(C)CCC1CCc2c(sc3ncnc(Nc4ccc(F)c(Cl)c4)c23)C1 (centres unmarked) [Example 96, N-(3-chloro-4-fluorophenyl)-7-{2-[(2-methoxyethyl)(methyl)amino]ethyl}-5,6,7,8-tetrahydro[1]benzothieno[2,3-d]pyrimidin-4-amine]
22 | > 5.30 | > 4.30 | Fc1cccc(COc2ccc(Nc3ncnc4sc5c(c34)CCC(CCBr)C5)cc2Cl)c1 (centres unmarked) [Example 138, [7-(2-Bromo-ethyl)-5,6,7,8-tetrahydro-benzo[4,5]thieno[2,3-d]pyrimidin-4-yl]-[3-chloro-4-(3-fluoro-benzyloxy)-phenyl]-amine]
23 | > 5.30 | > 5.30 | CN(C)CCNCCC1CCc2c(sc3ncnc(Nc4ccc(OCc5cccc(F)c5)c(Cl)c4)c23)C1 (centres unmarked) [Example 162, N′-{2-[4-({3-chloro-4-[(3-fluorobenzyl)oxy]phenyl}amino)-5,6,7,8-tetrahydro[1]benzothieno[2,3-d]pyrimidin-7-yl]ethyl}-N,N-dimethylethane-1,2-diamine]
24 | > 4.30 | > 4.30 | O=C(CC1CCc2c(sc3ncnc(Nc4cccc(Br)c4)c23)C1)N1CCCC1 (centres unmarked) [Example 81, N-(3-bromophenyl)-7-[2-oxo-2-(1-pyrrolidinyl)ethyl]-5,6,7,8-tetrahydro[1]benzothieno[2,3-d]pyrimidin-4-amine]
25 | > 5.30 | > 5.30 | CS(=O)(=O)CCNCCC1CCc2c(sc3ncnc(Nc4cccc(Br)c4)c23)C1 (centres unmarked) [Example 84, N-(3-bromophenyl)-7-(2-{[2-(methylsulfonyl)ethyl]amino}ethyl)-5,6,7,8-tetrahydro[1]benzothieno[2,3-d]pyrimidin-4-amine]
26 | > 5.30 | > 5.30 | c1ccc(Cn2ncc3cc(Nc4ncnc5sc6c(c45)CCC(CCNCCN4CCOCC4)C6)ccc32)cc1 (centres unmarked) [Example 209, N-(1-benzyl-1H-indazol-5-yl)-7-{2-[(2-morpholin-4-ylethyl)amino]ethyl}-5,6,7,8-tetrahydro[1]benzothieno[2,3-d]pyrimidin-4-amine]
27 | > 4.30 | > 4.30 | O=C(C1CCc2c(sc3ncnc(Nc4ccc(F)c(Cl)c4)c23)C1)N1CCCCC1 (centres unmarked) [Example 3, N-(3-chloro-4-fluorophenyl)-7-(1-piperidinylcarbonyl)-5,6,7,8-tetrahydro[1]benzothieno[2,3-d]pyrimidin-4-amine]
28 | > 5.30 | > 5.30 | CN(C)[C@H]1CCN(C(=O)CC2CCc3c(sc4ncnc(Nc5ccc(OCc6ccc(F)cc6)c(Cl)c5)c34)C2)C1 (stereo partly drawn) [Example 148, N-{3-chloro-4-[(4-fluorobenzyl)oxy]phenyl}-7-{2-[(3S)-3-(dimethylamino)pyrrolidin-1-yl]-2-oxoethyl}-5,6,7,8-tetrahydro[1]benzothieno[2,3-d]pyrimidin-4-amine]
